Reference: patent US6380204B1, “Atropisomers of 3-heteroaryl-4(3H)-quinazolinones for the treatment of neurodegenerative and CNS-trauma related conditions” (Pfizer INC, priority 1997, dated 2002)

Columns and labels:
[1] = system: global and focal ischemic damage; conditions: competitive AMPA receptor antagonist; Sheardown et al., Buchan et al., LePeillet et al.; cited from earlier work
global ischemia = conditions: noncompetitive AMPA receptor antagonist; LaPeillet et al.; cited from earlier work

melting point | SMILES | other results
 | NS(=O)(=O)c1cccc2c1c([N+](=O)[O-])cc1nc(O)c(O)nc12 [NBQX, 2,3-dihydroxy-6-nitro-7-sulfamoylbenzo[f-]quinoxaline] | prevention of global and focal ischemic damage [1]: effective in preventing global and focal ischemic damage
 | CC1=NN=C(c2ccc(N)cc2)c2cc3c(cc2C1)OCO3 [GKYI 52466] | neuroprotection in rat global ischemia models (global ischemia): effective neuroprotective agent
145 to 146 °C | CS(=O)(=O)O.Cc1nc(C=Cc2nc3ccc(F)cc3c(=O)n2-c2cccnc2C)cs1 (single isomer, unassigned) | 
151 to 153 °C | Cc1nc(CCc2nc3ccc(F)cc3c(=O)n2-c2cccnc2C)cs1 | 
